Measurements from PubChem BioAssay AID489003 (NMMLSC, 2010).
Active and inactive are the calls of the source.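 Rule for the calls: active = compounds whose weighted score, built from EC50 under 10 micromolar and fitted span over a set limit, tops 52; inactive = the rest.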

Molecular target: Broad substrate specificity ATP-binding cassette transporter ABCG2 (Homo sapiens) (UniProt Q9UNQ0)
Experiment: ABCG2 efflux pump inhibitors, dose response, Ig-MXP3 cells, JC-1 substrate, flow cytometry (AID 489003)
Settings: JC-1 efflux

Chain of Broad substrate specificity ATP-binding cassette transporter ABCG2 (Homo sapiens) (Q9UNQ0 whole entry, looked up): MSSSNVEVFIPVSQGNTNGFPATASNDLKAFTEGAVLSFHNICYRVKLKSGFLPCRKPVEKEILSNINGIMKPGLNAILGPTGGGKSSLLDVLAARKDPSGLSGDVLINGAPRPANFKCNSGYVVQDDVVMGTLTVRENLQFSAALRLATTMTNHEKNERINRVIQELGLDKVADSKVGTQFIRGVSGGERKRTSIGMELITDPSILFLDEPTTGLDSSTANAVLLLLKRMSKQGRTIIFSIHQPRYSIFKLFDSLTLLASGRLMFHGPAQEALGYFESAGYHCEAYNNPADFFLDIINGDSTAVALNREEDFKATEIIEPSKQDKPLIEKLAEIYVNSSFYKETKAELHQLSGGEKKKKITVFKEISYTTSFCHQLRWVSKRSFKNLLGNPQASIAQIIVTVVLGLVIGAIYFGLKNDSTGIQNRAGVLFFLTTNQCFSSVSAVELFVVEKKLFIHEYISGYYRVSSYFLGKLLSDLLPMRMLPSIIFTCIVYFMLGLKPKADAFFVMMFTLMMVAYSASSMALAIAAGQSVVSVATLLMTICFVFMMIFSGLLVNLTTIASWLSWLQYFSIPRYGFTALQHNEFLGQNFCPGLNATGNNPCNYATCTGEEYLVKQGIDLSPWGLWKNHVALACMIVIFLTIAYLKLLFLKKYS

Compound | EC50 | inhibition (at 50 µM (top of the series))
CN(CCCN(C)c1cc(-c2ccco2)nc2cc(-c3ccccc3)nn12)C(=O)c1ccoc1 | 2.71 µM | –
Cc1ccc(-c2cc3nc(-c4ccco4)cc(N4CCN(C(=O)c5ccoc5)CC4)n3n2)cc1 | 8.18 µM | –
COC(=O)c1cccc(-c2cc(N3CCN(C(=O)c4ccoc4)CC3)n3nc(-c4cccc(OC)c4)cc3n2)c1 | 1.68 µM | –
COc1cccc(-c2cc(N3CCN(C(=O)c4ccoc4)CC3)n3nc(-c4ccccc4)cc3n2)c1 | 3.33 µM | –
COc1cccc(-c2cc3nc(-c4ccccc4)c(C)c(N4CCN(C(=O)c5ccoc5)CC4)n3n2)c1 | 1.67 µM | –
c1ccc(CN2CCN(c3cc(-c4ccco4)nc4cc(-c5ccccc5)nn34)CC2)cc1 | 1.68 µM | –
O=C1CN(c2cc(-c3ccco3)nc3cc(-c4ccccc4)nn23)CCN1c1ccccc1 | 1.36 µM | –
CCc1c(C)nc2cc(-c3cccc(OC)c3)nn2c1N1CCN(C(=O)c2ccoc2)CC1 | 1.45 µM | –
Cc1cccc(-c2cc3nc(-c4ccco4)cc(N4CCN(C(=O)c5ccoc5)CC4)n3n2)c1 | 9.09 µM | –
CN(CCN(C)c1cc(-c2ccco2)nc2cc(-c3ccccc3)nn12)C(=O)c1ccoc1 | inactive | –
COc1ccc(-c2cc3nc(C)c(C)c(N4CCN(C(=O)c5ccoc5)CC4)n3n2)cc1 | 1.2 µM | –
COc1ccc(-c2cc3nc(C)c(C)c(N4CCN(C(C)=O)CC4)n3n2)cc1 | 6.39 µM | –
COc1ccccc1-c1c(C)nn2c(N3CCN(C(=O)c4ccco4)CC3)cc(C)nc12 | – | inactive
Cc1nc2cc(-c3cccc(Cl)c3)nn2c(N2CCN(C(=O)c3ccoc3)CC2)c1C | 9.31 µM | –
O=C(c1ccoc1)N1CCN(c2cc(-c3ccccc3F)nc3cc(-c4ccccc4)nn23)CC1 | 3.62 µM | –
O=C(Nc1ccccc1)C1CCN(c2cc(-c3ccco3)nc3cc(-c4ccccc4)nn23)CC1 | 6.49 µM | –
CC(=O)N1CCN(c2cc(C)nc3cc(-c4cccc(F)c4)nn23)CC1 | inactive | –
CC(=O)N1CCN(c2cc(-c3ccccc3)nc3cc(-c4ccccc4)nn23)CC1 | 2.36 µM | –
O=C(c1ccoc1)N1CCN(c2cc(-c3ccco3)nc3cc(-c4cccc(Cl)c4)nn23)CC1 | 2.96 µM | –
O=C(c1ccoc1)N1CCCN(c2cc(-c3ccco3)nc3cc(-c4ccccc4)nn23)C1 | 1.22 µM | –
COc1cccc(-c2cc(N3CCN(C(=O)c4ccoc4)CC3)n3nc(-c4cccc(OC)c4)cc3n2)c1 | 0.54 µM | –

Compound | EC50 | inhibition (at 50 µM (top of the series))
COc1cccc(-c2cc3nc(C)cc(N4CCN(C(=O)c5ccoc5)CC4)n3n2)c1 | 4.57 µM | –
Cc1cc(N2CCN(C(=O)c3ccoc3)CC2)n2nc(-c3ccccc3)cc2n1 | 7.19 µM | –
COc1cccc(-c2cc3nc(C)c(C(C)C)c(N4CCN(C(=O)c5ccoc5)CC4)n3n2)c1 | 6.02 µM | –
O=C(c1ccoc1)N1CCN(c2cc(-c3ccco3)nc3cc(-c4cccs4)nn23)CC1 | 2.48 µM | –
COc1ccc(-c2cc(N3CCN(C(=O)c4ccoc4)CC3)n3nc(-c4ccccc4)cc3n2)cc1 | 3.64 µM | –
COc1cccc(-c2cc3nc(-c4ccco4)cc(N4CCN(C(=O)c5ccoc5)CC4)n3n2)c1 | 1.86 µM | –
O=C(C1CCCO1)N1CCN(c2c3c(nc4cc(-c5cccc(F)c5)nn24)CCCC3)CC1 (configuration not stated) | inactive | –
O=C(c1coc2ccccc12)N1CCN(c2cc(-c3ccco3)nc3cc(-c4ccccc4)nn23)CC1 | 1.46 µM | –
O=C(c1ccsc1)N1CCN(c2cc(-c3ccco3)nc3cc(-c4ccccc4)nn23)CC1 | 2.87 µM | –
COc1ccc(-c2cc3nc(-c4ccccc4)cc(N4CCN(C(=O)c5ccoc5)CC4)n3n2)cc1 | 1.62 µM | –
O=C(OCc1ccccc1)N1CCN(c2cc(-c3ccco3)nc3cc(-c4ccccc4)nn23)CC1 | 2.73 µM | –
Cc1nn2c(N3CCN(C(=O)c4ccco4)CC3)cc(C(C)(C)C)nc2c1-c1ccc(Cl)cc1 | 1.92 µM | –
CC(=O)N1CCN(c2cc(-c3ccco3)nc3cc(-c4ccccc4)nn23)CC1 | inactive | –
O=C(c1ccoc1)N1CCN(c2cc(-c3cccc(F)c3)nc3cc(-c4ccccc4)nn23)CC1 | 2.11 µM | –
COc1ccc(-c2cc3nc(C)c(C)c(N4CCN(C(=O)c5ccco5)CC4)n3n2)cc1 | 2.68 µM | –
Cc1nc2cc(-c3cccc(F)c3)nn2c(N2CCN(C(=O)c3ccco3)CC2)c1C | 1.43 µM | –
COc1ccc(-c2cc3nc(-c4ccco4)cc(N4CCN(C(=O)c5ccoc5)CC4)n3n2)cc1 | 1.8 µM | –
O=C(c1ccoc1)N1CCN(c2cc(-c3ccco3)nc3cc(-c4ccccc4)nn23)CC1 | 0.46 µM | –
Cc1cc(C(=O)N2CCN(c3cc(-c4ccco4)nc4cc(-c5ccccc5)nn34)CC2)c(C)o1 | 3.81 µM | –
CC(=O)N1CCN(c2c(C)c(C)nc3cc(-c4ccc(F)cc4)nn23)CC1 | inactive | –
CNCCN(C)c1cc(-c2ccco2)nc2cc(-c3ccccc3)nn12 | inactive | –
